Legend:
[1] = system: U44069 induced pulmonary hypertension; assay type: in vivo, sheep
Excerpt: (§1) The efficacy of benzindene prostaglandins, such as UT-15, for treating pulmonary hypertension can be assessed by determining the hemodynamics associated with pulmonary hypertension. In particular, measurements of pulmonary arterial pressure (PPA), left atrial pressure (PLA), central venous pressure (PCV), systemic arterial pressure (PSYS), heart rate (HR), and cardiac output (CO) are useful in determining the effects of benzindene prostaglandins delivered by inhalation or parenterally.
(§2) Heart rate was determined by measuring the time (seconds) required for 25 heart beats to occur (t25) as indicated by the pulsations on the blood flow meter; the beats per minute (BPM) were calculated by the following equation: […]
(§3) All pressure may be monitored by commercially available transducers, such as Model 1290A HEWLETT PACKARD™ transducer (Andover, Mass.), which is attached to VALIDYNE CD19A Carrier Dmod. Amplifiers (Northridge, Calif.). Cardiac output may be measured by a Transonic Systems T101 Ultrasonic Bloodflow Meter (Ithaca, N.Y.). The pressure and blood flow signals may be recorded on ASTROMED MT-9500 Stripchart Recorder (West Warwick, R.I.) and digitally recorded with a personal computer using Easy Data Acquisition Software (Nashville, Tenn.).
Sheep were used as the animal model of choice for these experiments for a number of reasons. First is the docile nature of sheep. They will stand quietly in metabolic cages without having to utilize tranquilizing drugs, which have the potential to complicate experimental results. Second, sheep are large enough to allow direct measurement of CO, PPA, PLA, PCV, and PSYS. Sheep are also large enough to allow direct aerosolization of substances into the lung via trachoestomy thereby preventing swallowing of drugs and thus eliminating a possible secondary route of administration of UT-15. Third, sheep can tolerate a great amount of instrumentation with little or no discomfort. Fourth, sheep have been utilized for several years as an animal model of pulmonary arterial hypertension and thus, there is a great amount of historical data with which to compare the results. The agent chosen to induce pulmonary arterial hypertension was a PGH2 analog, U44069 (9,11-dideoxy,9α,11α-epoxymethanoprostaglandin F2α). The reasons for using U44069 are that it is a very potent pulmonary vasoconstrictor, its characteristics are very similar to endogenously formed thromboxane A2, and it can be titrated to induce the desired degree of pulmonary vasoconstriction. U44069 was mixed with sterile normal saline immediately prior to being used and was protected from light by wrapping the solution with aluminum foil. The concentration of U44069 was adjusted such that a minimal flow rate of 0.8 ml per min was being infused into the sheep. This was done because more concentrated U44069 would have to be infused at very low rates and often causes “pulses” of U44069 due to the infusion characteristics of roller pumps. The U44069 pulses cause vasoconstriction “spikes” and thus would create induce a non-steady-state.
Six yearling sheep (3 males, 3 females; 21-37 kg) were fasted 18-24 hours and initially anesthetized with a short acting barbiturate (thiopental) to allow intubation of the sheep. Halothane gas anesthesia (1.5-2.5%) was then used for the surgical procedures. Via a left thoracotomy, a Transonic blood flow probe was placed around the main pulmonary artery, silastic catheters placed in the main pulmonary artery and left atrium. After approximately 7 days the sheep were reanesthetized and the left carotid artery cannulated, a Cordis Introducer Sheath inserted in the left jugular vein, and a tracheotomy made. The sheep were allowed to recover for another 3-5 days prior to experimentation. […]

[2] = system: sheep; experiment: Intravenous and aerosolized UT-15 dose response effects on baseline hemodynamics; assay type: in vivo; details: baseline conditions; for central venous pressure (PCV) relative to baseline / pulmonary arterial pressure (PPA) relative to baseline: any dose; for systemic arterial pressure (PSYS): any administration rate; for cardiac output (CO) relative to baseline: any delivery rate
Excerpt: as §1, §2, §3
Inhalation solutions were prepared by combining 1.25 grams of Sodium Citrate (Hydrous), 0.125 Citric Acid (Anhydrous), 0.05 grams of Sodium Hydroxide (NF/BP), 0.125 grams of UT-15, and approximately 250 ml of Water for Injection according to the following steps.
Working solution was made by adding sterile saline to dilute the UT15 stock solution or placebo to the desired amount (depending on dose desired, weight of sheep, and duration of aerosolizing). This solution was then added to the nebulizer in volumes not exceeding 5 ml until entire amount was used.
Six yearling sheep (3 males, 3 females; 21-37 kg) were fasted 18-24 hours and initially anesthetized with a short acting barbiturate (thiopental) to allow intubation of the sheep. Halothane gas anesthesia (1.5-2.5%) was then used for the surgical procedures. Via a left thoracotomy, a Transonic blood flow probe was placed around the main pulmonary artery, silastic catheters placed in the main pulmonary artery and left atrium. After approximately 7 days the sheep were reanesthetized and the left carotid artery cannulated, a Cordis Introducer Sheath inserted in the left jugular vein, and a tracheotomy made. The sheep were allowed to recover for another 3-5 days prior to experimentation. These sheep were used to allow measurement of pulmonary arterial pressure (PPA), left atrial pressure (PLA), central venous pressure (PCV), systemic arterial pressure (PSYS), heart rate (HR), and cardiac output (CO) after baseline measurements were made for a minimum of 30 minutes.
Two separate experiments were conducted to determine the dose response effects of intravenously infused UT-15 on baseline hemodynamics and aerosolized UT-15 on baseline hemodynamics. For the infusion experimental protocol, after a 30 minute baseline was established, UT-15 was infused intravenously at 3 rates (250, 500 and 1000 ng per kg per min). In three sheep, the infusion rates lasted for 30 minutes each, and for the other three sheep, the infusions were for 60 minutes each.
The aerosolized UT-15 protocol involved establishing a 30 minute baseline, then administering aerosolized UT-15 via a tracheostromy at rates of […] per kg of body weight per min and at an aerosolization rate of 0.28 ml/min. Again, three sheep were aerosolized for 30 minutes and the other three sheep were aerosolized for 60 minutes.

[3] = system: sheep; experiment: as above; assay type: in vivo; details: baseline conditions, aerosolized, 250, 500, and 100 ng per kg per min
[4] = system: blood platelets; details: cited from earlier work
[5] = U44069 iv infusion alone, 1 ng per kg per min

CCCCC[C@H](O)/C=C/C1C2COC(C2)C1C/C=C\CCCC(=O)O (stereo partly drawn) [U44069, 9,11-dideoxy,9α,11α-epoxymethanoprostaglandin F2α, reference compound]
left atrial pressure [1, 5]: did not alter left atrial pressure significantly | pulmonary arterial pressure (PPA) relative to baseline [1, 5]: significantly increased | pulmonary vascular resistance (PVR) [1, 5]: dramatic increase

CCCCC[C@H](O)CC[C@@H]1[C@H]2Cc3cccc(OCC(=O)O)c3C[C@H]2C[C@H]1O [UT-15, 9-deoxy-2′,9-alpha-methano-3-oxa-4,5,6-trinor-3,7-(1′,3′-interphenylene)-13,14-dihydro-prostaglandin F1]
central venous pressure (PCV) relative to baseline ([2]; aerosol): no statistical difference | pulmonary vascular resistance (PVR) ([2]; aerosolized, all 3 delivery rates): significant decrease | systemic arterial pressure (PSYS) ([2]; aerosolized): no significant effect | cardiac output (CO) relative to baseline ([2]; aerosolized): no significant changes | pulmonary arterial pressure (PPA) relative to baseline ([2]; aerosolized, not statistically different): general trend for PPA to decrease | left atrial pressure (PLA) relative to baseline ([2]; aerosolized, mean values increased): neither intravenous nor aerosolized UT-15 caused PLA to significantly change | pulmonary vascular resistance (PVR) ([2]; intravenous): no significant effect | systemic arterial pressure (PSYS) ([2]; intravenous): no significant effect | cardiac output (CO) relative to baseline ([2]; intravenous): no significant changes | central venous pressure (PCV) relative to baseline ([2]; intravenous): no statistical difference | pulmonary arterial pressure (PPA) relative to baseline ([2]; intravenous): same effects | left atrial pressure (PLA) relative to baseline ([2]; intravenous, mean values decreased): neither intravenous nor aerosolized UT-15 caused PLA to significantly change | potency and efficacy in attenuating chemically induced pulmonary hypertension (increase in PVR) ([1]; aerosolized UT-15 compared to intravascularly administered UT-15): greater potency and efficacy | central venous pressure ([1]; during iv U44069, aerosol UT-15, only 500 ng per kg per min): different from the corresponding intravenous UT-15 infusion value | pulmonary arterial pressure (PPA) ([1]; during iv U44069, aerosolized UT-15, 500 and 1000 ng per kg per min): back to normal values | pulmonary vascular resistance (PVR) relative to baseline PVR ([1]; during iv U44069, aerosolized UT-15, any of the three delivery rates): no significant difference | pulmonary arterial pressure (PPA) versus U44069 value ([1]; during iv U44069, intravascular UT-15): decrease significantly | pulmonary vascular resistance (PVR), U44069-induced increase ([1]; during iv U44069, intravenously infused UT-15, 500 and 1000 ng per kg per min): significantly attenuated | left atrial pressure versus U44069 value ([1]; during iv U44069, intravenously infused UT-15, all three delivery rates): significant decrease | peripheral effects (heart rate, cardiac output) ([1]; in vivo): no apparent peripheral effects | pulmonary vascular driving pressure (PPA minus PLA) versus baseline [3]: significant | anti-aggregatory action on blood platelets [4]: potent anti-aggregatory action

— US6756033B2, “Method for delivering benzindene prostaglandins by inhalation” (United Therapeutics Corporation, priority 1999, dated 2004)
